# Like-named read-outs stand apart in the source and are kept apart here. Where no end group is shown, it is not given here. [ ]: non-standard residue; d: D form. pY = N[C@@H](Cc1ccc(OP(=O)(O)O)cc1)C(=O)O; pT = C[C@@H](OP(=O)(O)O)[C@H](N)C(=O)O; pS = N[C@@H](COP(=O)(O)O)C(=O)O
# What was measured:
# [1] = molecular target: T1, TRAP isolated from rat bone (BoneTRAP) (Rattus norvegicus, UniProt P29288); assay: Substrate specificity of bone TRAP (phosphatase assay); format: biochemical; conditions: for Ratio Bone/Bac: Kcat/Km BoneTRAP over BacTRAP
# T1 construct: from tissue; host or cells: long bones of 3 week old Sprague Dawley rats
# T1 sequence (P29288 23-327): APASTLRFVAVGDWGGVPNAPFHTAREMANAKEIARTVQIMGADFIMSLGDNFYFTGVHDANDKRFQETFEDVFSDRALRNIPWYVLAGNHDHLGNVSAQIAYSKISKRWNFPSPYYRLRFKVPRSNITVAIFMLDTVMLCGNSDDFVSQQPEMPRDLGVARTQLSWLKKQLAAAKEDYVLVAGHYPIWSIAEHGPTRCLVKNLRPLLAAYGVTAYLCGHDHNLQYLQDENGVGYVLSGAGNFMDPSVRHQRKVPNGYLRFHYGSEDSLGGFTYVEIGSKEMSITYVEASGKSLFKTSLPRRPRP
# T1 sequence (P29288 184-327): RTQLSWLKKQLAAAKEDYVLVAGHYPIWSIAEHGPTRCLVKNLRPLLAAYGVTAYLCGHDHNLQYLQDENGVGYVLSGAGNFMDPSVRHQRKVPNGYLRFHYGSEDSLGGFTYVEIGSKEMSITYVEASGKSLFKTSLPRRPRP
# Description: (§1) The substrates were dissolved in incubation medium containing the same buffer as in the pNPP-assay. […] A phosphate standard curve […] was always run in parallel. […] In order to validate whether the structural alterations induced by proteolytic cleavage of the monomeric TRAP was generally affecting known substrates for TRAP and not restricted to the non-physiological substrate pNPP, we surveyed a number of different phosphoaminoacids, phosphopeptides and the phosphoprotein osteopontin as substrates for the TRAPs (See Table II).
# [2] = molecular target: T2, recombinant rat TRAP produced using Baculovirus expression system (BacTRAP) (Rattus norvegicus, UniProt P29288); assay: Substrate specificity of recombinant TRAP (phosphatase assay); format: biochemical
# T2 construct: made in house
# T2 sequence (P29288 23-327): T1 sequence (P29288 23-327)
# Description: as §1
# BacTRAP + Cath. B = assay: pNPP hydrolysis by cathepsin B-digested recombinant TRAP; format: biochemical, rat
# Description: (§2) P-nitrophenylphosphosphatase activity was assayed in 96-well plates using the p-nitrophenylphosphate (pNPP) as substrate in the incubation medium (150 μl) containing (final concentrations); 10 mM pNPP, 0.1 M sodium acetate pH 5.8, 0.15 M KCl, 0.1% Triton X-100, 10 mM sodium tartrate, 1 mM ascorbic acid and 0.1 mM FeCl3. The p-nitrophenol liberated after 1 hour of incubation at 37° C. was converted into p-nitrophenylate by the addition of 100 μl of 0.3 M NaOH, and the absorbance was read at 405 nm. For absorbance reading a Spectramax 250 spectrophotometer (Molecular Devices, Sunnyvale, Calif.) was used.
# (§3) 1 U of p-nitrophenylphosphatase activity corresponds to 1 μmole of p-nitrophenol liberated per minute at 37° C. […] The substrates were dissolved in incubation medium containing the same buffer as in the pNPP-assay. After 1 hour of incubation (final volume 50 μl) at 37° C. the assay was stopped by addition of 50 μl of color reagens (0.12% Malachite-green in 3 M H2SO4/7.5% ammomium molybdate/11% Tween-20; 10:2.5:0.2). […] After color development for 10 min the absorbance at 630 nm was measured using a Spectramax 250 spectrophotometer.
# (§4) Incubation was performed at room temperature for 1 h with the suspension kept well mixed during the reaction period. The proteolytic digestions above were stopped by centrifugation and the cleavage products of TRAP in the supernatant were further analyzed. […]
# [3] = molecular target: T3, recombinant rat TRAP (BacTRAP) (Rattus norvegicus, UniProt P29288); assay: pNPP hydrolysis by untreated recombinant TRAP; format: biochemical
# T3 construct: made in house
# T3 sequence (P29288 23-327): T1 sequence (P29288 23-327)
# Description: as §2
# (§5) 1 U of p-nitrophenylphosphatase activity corresponds to 1 μmole of p-nitrophenol liberated per minute at 37° C. […] The substrates were dissolved in incubation medium containing the same buffer as in the pNPP-assay. After 1 hour of incubation (final volume 50 μl) at 37° C. the assay was stopped by addition of 50 μl of color reagens (0.12% Malachite-green in 3 M H2SO4/7.5% ammomium molybdate/11% Tween-20; 10:2.5:0.2). A phosphate standard curve […] was always run in parallel. After color development for 10 min the absorbance at 630 nm was measured using a Spectramax 250 spectrophotometer.
# BacTRAP + papain = molecular target: T4, BacTRAP + papain (Rattus norvegicus, UniProt P29288); assay: pNPP hydrolysis by papain-digested recombinant TRAP; format: biochemical
# T4 construct: made in house; host or cells: recombinant Baculovirus-infected cells; then digested with papain-agarose
# T4 sequence (P29288 23-327): T1 sequence (P29288 23-327)
# T4 sequence (P29288 184-327): T1 sequence (P29288 184-327)
# Description: as §2, §5
# Proteolytic Digestion of TRAP 25 μg baculoTRAP or bone TRAP were digested with […] papain-agarose in 500 μl of incubation solution; 10 mM sodium acetate, pH 4.6, 0.1% Triton X-100 and 2 mM DTT. Incubation was performed at room temperature for 24 h, with constant mixing of the gel. 25 μg baculo TRAP or bone TRAP were digested with 100 μl (5units) trypsin-agarose in 500 μl of incubation solution; 10 mM Tris pH 7.0 and 0.1% Triton X-100.
# Incubation was performed at room temperature for 1 h with the suspension kept well mixed during the reaction period. The proteolytic digestions above were stopped by centrifugation and the cleavage products of TRAP in the supernatant were further analyzed. Digestion of baculo TRAP or bone TRAP with cathepsin B were performed at (final concentrations); 10 ng TRAP/μl, 0.4 mU cathepsin B/μl, 2 mM DTT, 50 mM sodium acetate and 1 mM EDTA, pH 5.5. The incubations were performed at 37° C. for 24 h and digestions were stopped with protease inhibitor cocktail Complete according to the instructions of the manufacturer.
# BoneTRAP = molecular target: T5, BoneTRAP (Rattus norvegicus, UniProt P29288); assay: pNPP hydrolysis by bone TRAP; format: biochemical; conditions: BoneTRAP untreated
# T5 construct: from tissue; host or cells: long bones of 3 week old Sprague Dawley rats
# T5 sequence (P29288 23-327): T1 sequence (P29288 23-327)
# T5 sequence (P29288 184-327): T1 sequence (P29288 184-327)
# Description: Bone TRAP was purified from the long bones of 40 3 week old Sprague Dawley rats. All operations were performed at 4° C. The dissected bones, free from soft tissue, were cut into small pieces and placed in homogenization solution with protease inhibitors (3 ml/g bone); 0.15 M KCl, 0.1% Triton X-100, Pefabloc (1 mg/ml), Pepstatin A (10 μg/ml), E-64 (10 μg/ml) and 5 mM EDTA. A Polytron homogenizer (Brinkman Instruments Westbury, N.Y.) was used for homogenization during 10 seconds, with 1 minute intervals, until a homogenous suspension was achieved. The homogenate was cleared by centrifugation at 3,200×g for 30 min. 5 % protamine sulfate was added dropwise to the supernatant during continous stirring to a final concentration of 0.5%, with further stirring for 30 min. […]
# as §2, with “used. […]” for “used.”
# BacTRAP + trypsin = assay: pNPP hydrolysis by trypsin-digested recombinant TRAP; format: biochemical, rat
# Description: as §2
# as §3, with “spectrophotometer. […]” for “spectrophotometer.”
# as §4
# [4] = molecular target: T6, intact recombinant TRAP (baculoTRAP) (Rattus norvegicus, UniProt P29288); assay: Preincubation with reducing agents, intact recombinant TRAP; format: biochemical; conditions: ascorbate 1 mM in the presence of 0.1 mM FeCl3
# T6 construct: made in house
# T6 sequence (P29288 23-327): T1 sequence (P29288 23-327)
# Description: as §2
# (§6) c) BaculoTRAP digested with papain or trypsin were compared with undigested baculoTRAP and bone TRAP. Ascorbic acid and FeCl3 were used as reducing agents during preincubation of TRAP for indicated time intervals in a total volume of 70 μl with (final concentrations); 1 mM ascorbic acid, 0.1 mM FeCl3, 0.15 M KCl, 10 mM sodium tartrate, 0.1% Triton X-100. Except for a substrate incubation time of 10 min, TRAP activity was measured after the addition of 80 μl of substrate solution as described under Materials and Methods.
# rat bone TRAP = molecular target: T7, rat bone TRAP (Rattus norvegicus, UniProt P29288); assay: Preincubation with reducing agents, bone TRAP; format: biochemical
# T7 construct: from tissue; host or cells: long bones of 3 week old Sprague Dawley rats
# T7 sequence (P29288 23-327): T1 sequence (P29288 23-327)
# T7 sequence (P29288 184-327): T1 sequence (P29288 184-327)
# Description: as §2, §6
# [5] = Kcat/Km relative to pT = 1.0, BoneTRAP
# [6] = Kcat/Km relative to pT = 1.0, BacTRAP
Compound,Ratio Bone/Bac [1],"Ratio (BoneTRAP) [1, 5]","Ratio (BacTRAP) [2, 6]",other results
"C[C@@H](OP(=O)(O)O)[C@H](N)C(=O)O [pT, Phosphothreonine]",14,1.0,1.0,
"N[C@@H](COP(=O)(O)O)C(=O)O [pS, phosphoserine]",22,2.0,1.2,
END[pY]INASL,10,280,375,
RRA[pT]VA,5.0,10,2.8,
"O=[N+]([O-])c1ccc(OP(=O)(O)O)cc1 [pNPP, p-nitrophenylphosphate]",8.8,,,"Ratio (BoneTRAP) [1]: 690; Ratio (BacTRAP) [2]: 1075; Km (BacTRAP + Cath. B): 900 µM; Km ([3]; pNPP hydrolysis, BacTRAP untreated): 3100 µM; pH-optimum of pNPP hydrolysis ([3]; recombinant TRAP as isolated): 4.5-5.0 pH; Km (BacTRAP + papain; pNPP hydrolysis, BacTRAP + papain): 1000 µM; increase in the ratio kcat/Km (BacTRAP + papain; papain-cleaved recombinant TRAP compared to untreated monomeric TRAP): 10 fold; decrease in the Km for pNPP (BacTRAP + papain; papain-cleaved vs untreated recombinant TRAP): 3 fold; optimal pH of pNPP hydrolysis (BacTRAP + papain; recombinant TRAP cleaved with papain): 5.5-6.0 pH; Km (BoneTRAP): 1000 µM; Km (BacTRAP + trypsin): 2100 µM"
"O=C1O[C@H]([C@@H](O)CO)C(O)=C1O [ascorbate, ascorbic acid]",,,,"effect of prolonged pre-incubation on TRAP activity [4]: did not show this tendency for inactivation; effect of prolonged pre-incubation on TRAP activity (rat bone TRAP; ascorbate 1 mM in the presence of 0.1 mM FeCl3): time-dependent inactivation; time to maximal activation (rat bone TRAP; pre-incubation with ascorbate 1 mM, 0.1 mM FeCl3): ≤ 10 min"
"N[C@@H](Cc1ccc(OP(=O)(O)O)cc1)C(=O)O [pY, phosphotyrosine]",19,350,250,
FRI[pS]HELDS,15,15,14,
EDEE[pS]EDEE,4.2,15,50,
OPN: acidic phospho-seryl protein osteopontin purified from bovine milk,17,2360,1875,
DADE(pY)LIPQQG,18,640,475,
